Test results as given in publication PMC6261997, “Synergistic enzymatic and bioorthogonal reactions for selective prodrug activation in living systems” (Nature Communications, 2018).

How the values were obtained:
[1] = system: Saos-2 cells; assay: Clonogenic assay, Saos-2 cells; type: cell-based; conditions: pre-treated with 500 μM 2 for 6 h
Method: (§1) Supplementary Figure 17. Clonogenic assay of different cell lines before and after treatment with 2. HeLa cells, HUVECs and Saos-2 cells were seeded at density of 400 cells per well, CCC-HEH-2 cells were seeded at density of 200 cells per well. Cells were incubated with 500 µM 2 for 6 h in the treatment groups. Cells were not treated with compound 2 in the control groups. Colonies were harvest approximately 10 days after seeding. Scale bar, 10 mm.
(§2) Supplementary Figure 18. Cytotoxicity of activated Dox against HeLa cells and HUVECs. HeLa cells or HUVECs at the density of 3x10^3 cells per well were incubated with 100 µL of pre-warmed medium containing compound 2 at 300 or 500 µM for 6 h. After washing with PBS, 100 µL of 0.0001-10 µM TCO-Dox was added. After 72 h, cell proliferation was assessed by the MTT assay (n= 6). Error bars indicate standard […]
(§3) Supplementary Figure 19. […] At each time point, the remaining 2, corresponding generated 3 and remaining TCO-Dox were determined by UPLC-MS/MS. […]
(§4) Clonogenic assay of cells in vitro: Clonogenic assay was performed according to the standard protocol.6 2×10^5 attached cells were treated with 500 µM of 2 for 6 h in culture dishes. Cells were then detached, re-suspended in cultural medium and counted accurately. […]
(§5) The glutaraldehyde crystal violet mixture was removed carefully. […] The number of the colonies was counted using a stereomicroscope. […]

[2] = system: CCC-HEH-2 cells; assay: Clonogenic assay, CCC-HEH-2 cells; type: cell-based, human; conditions: pre-treated with 500 μM 2 for 6 h
Method: as §1, §2, §3, §4, §5

[3] = system: HeLa cells; assay: Intracellular Tz accumulation by fluorescence liberation from TCO-CMR, HeLa cells; type: cell-based
Method: Next, we tested the intracellular accumulation of Tz via EISA in an attempt to differentiate cancer cells from normal cells. First, we investigated the accumulation of Tz in HeLa cells and HUVECs over time via fluorescence liberation from TCO-CMR (Fig. 3a). […] The cells were then washed with PBS thoroughly before the addition of an excessive amount of TCO-CMR (100 μL, 50 μM), and the reaction of TCO-CMR with the intracellular accumulated Tz was allowed to proceed for up to 24 h (Supplementary Fig. 8). In this experimental setting, the total liberated fluorescence was proportional to the amount of 3 accumulated inside the cells. […] Therefore, the optimized concentration of 2 (e.g. 500 μM) and incubation time (e.g. 6 h) were selected to differentiate between cancer and normal cells according to liberated fluorescence intensity (Fig. 3c). This differentiation was dependent on the considerably different phosphatase activity between these cell lines (Supplementary Fig. 11), allowing EISA to specifically occur in cancer cells as opposed to normal cells.
All cells were purchased from the National Infrastructure of Cell Line Resource (Beijing, China). HeLa cells, HUVECs and CCC-HEH-2 cells were cultured in a humidified CO2 (5%) incubator at 37 °C in DMEM supplemented with 10% foetal bovine serum (FBS, Gibco) and 1% Pen Strep (PS, Gibco). Saos-2 cells were cultured in a humidified CO2 (5%) incubator at 37 °C in McCoy’s 5A medium supplemented with 10% FBS and 1% PS. Cells were plated in flat-bottom 96-well plates (Corning) at a density of 10^4 cells per well and allowed to attach for 12 h. Then, the culture medium was replaced with 100 μL of pre-warmed medium containing 2 at different concentrations (100–500 μM). After incubation for different durations (1–24 h), the cells were rinsed with PBS, and then 100 μL of 50 μM TCO-CMR (dissolved in PBS) was added for real-time detection of the fluorescence intensity of coumarin in a plate reader (Perkin Elmer).

Structure (SMILES): Cc1nnc(-c2ccc(CC(=O)NCCCCC(NC(=O)Cc3ccc4ccccc4c3)C(=O)NC(Cc3ccc(OP(=O)(O)O)cc3)C(=O)NC(Cc3ccccc3)C(=O)O)cc2)nn1 (stereo not shown) [compound 2, NapK(Tz)YpF]
- Surviving Fraction, Saos-2 [1]: 0±0%
- Surviving Fraction, CCC-HEH-2 [2]: 92.2 ±8.3%
- incubation time at which liberated fluorescence reaches maximum value ([3]; 500 μM 2, then 50 μM TCO-CMR): approximately 6 h
- fluorescence emission of liberated coumarin in HeLa cells ([3]; pre-incubated with 400 or 500 μM 2): increased significantly
